Measured values as given in US20060275333A1, “Composition with beads for treatment of contact dermatitis” (Humco Holding Group, Inc., priority 2005, published 2006).

Key:
[1] = exposed to 50 micrograms of purified urushiol; cited from earlier work
[2] = test system: IL-1α; experiment: IL-1α release from Epiderm artificial skin, ELISA of culture media; type: cell-based, human
Description: When urushiol is applied to human skin it can elicit the synthesis and release of several key inflammatory cytokines, including IL-1α, IL-1β, IL-6, and IL-8. Release of these cytokines also has been noted in cultured keratinocyte models after the application of urushiol. IL-1α and IL-6 are synthesized and stored in keratinocytes and have been identified as mediators of skin irritation and inflammation. Release of these two cytokines can be measured directly in tissue culture media by a calorimetric enzyme linked immunosorbent assay (ELISA). In such measurements, antibodies covalently linked to a solid support will bind any IL-1α or IL-6 present in spent culture media samples. […] Upon addition of an appropriate color substrate the acetylcholinesterase enzyme will generate a colored end product that can be measured spectrophotometrically. […]
The Epidermic tissue samples were stored at 2-8° C. until used. […] The collected culture media were stored at −75±5° C. until analyzed for IL-1α and IL-6 levels. The IL-1α and IL-6 levels were determined by comparison with a standard curve generated from samples having known concentrations of these two cytokines. […] Absorbance values for the test materials and untreated samples were then used to estimate the amount of cytokine present in each sample.

[3] = test system: IL-6; experiment: IL-6 release from Epiderm artificial skin, ELISA of culture media; type: cell-based, human
Description: When urushiol is applied to human skin it can elicit the synthesis and release of several key inflammatory cytokines, including IL-1α, IL-1β, IL-6, and IL-8. Release of these cytokines also has been noted in cultured keratinocyte models after the application of urushiol. IL-1α and IL-6 are synthesized and stored in keratinocytes and have been identified as mediators of skin irritation and inflammation. Release of these two cytokines can be measured directly in tissue culture media by a calorimetric enzyme linked immunosorbent assay (ELISA). In such measurements, antibodies covalently linked to a solid support will bind any IL-1α or IL-6 present in spent culture media samples. A second antibody that is covalently attached to an acetylcholinesterase enzyme will in turn detect the bound cytokines. Upon addition of an appropriate color substrate the acetylcholinesterase enzyme will generate a colored end product that can be measured spectrophotometrically.
Testing of the invention herein was conducted using an artificial skin product designed for toxicity testing and sold under the name Epiderm® by Mat Tek Corporation of Ashland, Massachusetts. This artificial skin product consists of normal human-derived epidermal keratinocytes that have been cultured to form a multilayered, highly differentiated model of the human epidermis. […] Markers of mature epidermis specific differentiation such as profilaggrin, the K1/K10 cytokeratin pair, involucrin, and type I epidermal transglutaminase have been localized in this product. The product is also mitotically and metabolically active.
The Epidermic tissue samples were stored at 2-8° C. until used. The analyses were conducted with an ELISA test kit from Cayman Chemicals of Ann Arbor, Michigan, with all buffers and reagents being prepared according to the kit's instructions and allowed to come to room temperature. Prior to use, the tissues were removed from the agarose shipping tray and placed into a 6-well plate containing 1.0 ml of assay medium from the test kit, at 37±2° C. The tissues were allowed to incubate for one hour at 37±2° C. and 5±1% CO2. After this initial incubation, the assay medium was replaced with 1 ml of fresh medium at 37±2° C. […] The collected culture media were stored at −75±5° C. until analyzed for IL-1α and IL-6 levels. The IL-1α and IL-6 levels were determined by comparison with a standard curve generated from samples having known concentrations of these two cytokines. […] Absorbance values for the test materials and untreated samples were then used to estimate the amount of cytokine present in each sample.

[4] = test system: Epiderm normal human-derived epidermal keratinocytes; experiment: MTT assay of tissue viability of Epiderm artificial skin; type: cell-based; conditions: after the 48-hour time period; untreated tissues = 100%; same test materials
Procedure: The efficacy of nonylphenol ethoxylate on urushiol-induced dermatitis was evaluated by ELISA and MTT techniques. The MTT evaluation was based on a technique first described in Mosmann, T., “Rapid calorimetric assay for cellular growth and survival: application to proliferation and cytotoxicity assays,” J. Immunol. Methods, Dec. 16, 1983, 65(1-2):55-63. The analysis is based on the compound [3-(4,5-dimethylthiazol-2-yl)-2,5-diphenyltetrazolium bromide], commonly referred to as MTT. As reported by Mosmann, mitochondrial dehydrogenase enzyme from viable cells can cleave the tetrazolium rings of the pale yellow MTT and form dark blue formazin crystals. The crystals cannot permeate cell membranes, and thus tend to accumulate within healthy cells. […] The formazin is extracted with isopropanol and measured spectrophotometrically. […]
Epidermal irritation often is associated with a loss of viable ketinocytes. Therefore, changes in tissue viability after exposure to urushiol and the test were assessed using the MTT assay described above. […] After the extraction, a 200 μl sample from each well of the isopropanol/MTT mixture was transferred to a 96-well plate and the absorbance of the sample was read at 540 nm with a plate reader using 200 μl of isopropanol as the blank.
The mean MTT absorbance value for the untreated tissues was calculated and used to represent 100% tissue viability. […]

[5] = 4 Hours, Epiderm tissue, 100 μl test material, Urushiol = control lotion 0.05% 2-deoxy-urushiol, Nonylphenol Ethoxylate = control lotion + 0.2% w/v nonyl phenyl ethoxylate

Q: With CCCCCCCCCCCCCCCc1cccc(O)c1O [Urushiol] as the compound, how does the “adult Americans who get a rash” value [1] read?
A: Its value is 80-90%.

Q: What about the “IL-1α Accumulation in Cell Culture Media” value [2, 5] of the same compound?
A: Its value is 16.1 ± 5.2 pg/mL.

Q: And the “IL-1α Accumulation in Cell Culture Media” value ([2]; 12 Hours, same test materials)?
A: The value was 32.6 ± 6.3 pg/mL.

Q: And the “IL-6 Accumulation in Cell Culture Media” value [3, 5]?
A: The value was 1.9 ± 0.4 pg/mL.

Q: And the “IL-6 Accumulation in Cell Culture Media” value ([3]; 12 Hours, same test materials)?
A: Its value is 5.1 ± 0.4 pg/mL.

Q: And the “IL-6 Accumulation in Cell Culture Media” value ([3]; 24 Hours, same test materials)?
A: The value was 9.4 ± 0.3 pg/mL.

Q: What about the “IL-6 Accumulation in Cell Culture Media” value ([3]; 48 Hours, same test materials) of the same compound?
A: Its value is 16.4 ± 1.4 pg/mL.

Q: What about the “Percent Viability (MTT Assay)” value [4] of the same compound?
A: The value was 88 ± 5%.
